Measurements from patent US8377640B2, “Diagnostic screens for Alzheimer's disease” (ISIS Innovation Ltd., priority 2001, dated 2013).
Values joined by “and” are separate entries in the source; they are usually repeats but may differ in a detail not shown here. Equal entries are not always repeated.

Experiments:
cultured lymphocytes [1] = assay: MTT survival assay of PHA-activated lymphocyte cultures, treated versus control; assay type: cell-based, human
Experimental: In the second set of experiments (53 subjects) after an initial 48 hours incubation (as above) four separate cultures were set up. Control cultures were left without any treatment, one set of cultures was treated with 100 ng/ml rapamycin, the third set was treated with 1 μM doxorubicin while the fourth set was treated with 120 μM H2O2. Doxorubicin induces DNA damage, leading to arrest at G2/M, rather than G1/S. H2O2 treatment produces oxidative stress, leading to a reversible and temporary cell cycle arrest at G1/S.
After 20 hours of incubation a 4 hour long MTT survival assay (Chemicon International Ltd) was set up. Results were read using a microplate reader (570 filter; 630 reference filter). The ratio between cell numbers in treated cultures versus controls was expressed as percent.

cultured lymphocytes [2] = assay: Relative lengthening of the G1 phase (BrdU incorporation, FACS) in PHA-activated lymphocyte cultures treated with rapamycin; assay type: cell-based, human; conditions: 100 ng/ml rapamycin; for dG1: relative lengthening of the G1 phase of the cell cycle under Rapamycin effect: 24 h; for Mean (dG1): group mean
Experimental: A first set of experiments was carried out on 49 subjects (Table 1A), whilst a second set of experiments was carried out on 55 subjects (Table 1B). In the first set of experiments (49 subjects) two parallel lymphocyte cultures were set up from every individual in RPMI medium supplemented with 10% FCS at a concentration of 1×10^6 cells per 1 ml of culture media. Phytohaemaglutinin (PHA) was added to the cultures at a final concentration of 22 μg/ml to activate the lymphocytes. Cultures were incubated for 48 hours at 37° C. in a humidified atmosphere containing 5% CO2. After 48 hours incubation one culture was treated with 100 ng/ml rapamycin, while the other untreated culture was kept as a control. After a further 23 hours incubation BrdU was added in a concentration of 10 μg/ml to all cultures. After another hour cultures were ‘collected’ and fixed in 70% ice-cold ethanol. BrdU incorporation was assessed using immunohistochemistry followed by FACS analysis. The proportion of cells in various phases of the cell cycle was determined and data transformation performed to obtain the relative lengthening of the G1 phase (FIG. 1).
The calculations (relative lengthening of the G1 phase of the cell cycle in treated cultures relative to control cultures) were based on the assumptions that cells were in the exponential phase of proliferation and that the growth fraction in the cultures (ratio of dividing cells versus quiescent cells) was 1.0 (5). It was also assumed that rapamycin only altered the length of the G1 phase (19). Based on these assumptions the relative lengthening of the G1 phase was calculated using the formula: RL=100f-100 (expressed in percent). The ratio of the G1 time in treated versus control cultures: f=TG1tr/TG1c=[1n2−1n(2−G1tr)][1n(2−G1c)]/[1n(2−G1tr)][1n2−1n(2−G1c)] (5)

**Q.** For `COc1cccc2c1C(=O)c1c(O)c3c(c(O)c1C2=O)C[C@@](O)(C(=O)CO)C[C@@H]3O[C@H]1C[C@H](N)[C@H](O)[C@H](C)O1` [Doxorubicin, doxorubicin], which “Cell numbers after treatment (treated versus control cultures)” value (cultured lymphocytes [1]; 1 μM doxorubicin, 24 h, comparison between patient groups) is on record?
**A.** did not result in significant differences between patient groups

**Q.** With `CO[C@H]1C[C@@H]2CC[C@@H](C)[C@@](O)(O2)C(=O)C(=O)N2CCCC[C@H]2C(=O)O[C@H]([C@H](C)C[C@@H]2CC[C@@H](O)[C@H](OC)C2)CC(=O)[C@H](C)/C=C(\C)[C@@H](O)[C@@H](OC)C(=O)[C@H](C)C[C@H](C)/C=C/C=C/C=C/1C` [rapamycin] as the molecule, how does the “dG1: relative lengthening of the G1 phase of the cell cycle under Rapamycin effect” value (“dG1: relative lengthening” below) (cultured lymphocytes [2]; lymphocytes of individual patients, diagnosis AD (probable AD, NINCDS)) read?
**A.** 44.03% and 97.07% and 82.67% and 62.12% and 73.01% and 47.91% and 53.63% and 0% and 27%

**Q.** What about the “dG1: relative lengthening” value (cultured lymphocytes [2]; lymphocytes of individual patients, diagnosis ADM) of the same molecule?
**A.** 64.28% and 39.2% and 95.23% and 46.31% and 59.49% and 51.81% and 51.62%

**Q.** What about the “dG1: relative lengthening” value (cultured lymphocytes [2]; lymphocytes of individual patients, diagnosis DNOS) of the same molecule?
**A.** 31.64% and 69.07% and 97.27%

**Q.** What about the “dG1: relative lengthening” value (cultured lymphocytes [2]; lymphocytes of individual patients, diagnosis possAD) of the same molecule?
**A.** 56.77% and 60.1% and 98.1%

**Q.** What about the “dG1: relative lengthening” value (cultured lymphocytes [2]; lymphocytes of individual subjects, diagnosis Control) of the same molecule?
**A.** 51.69% and 64.1% and 40.07% and 114.1% and 119.8% and 50.04% and 177.8% and 62.81% and 54.56% and 162.7% and 97.33% and 46.02% and 110.8% and 140.6%

**Q.** What about the “dG1: relative lengthening” value (cultured lymphocytes [2]; lymphocytes of individual subjects, diagnosis preAD) of the same molecule?
**A.** 0% (3×) and 26.1% and 36.18% and 54.46% and 39.2% and 72.58% and 44.49% and 31.37% and 25.47% and 35.02% and 42.1%

**Q.** What about the “Mean (dG1)” value (cultured lymphocytes [2]; AD, n=9) of the same molecule?
**A.** 54.1602%

**Q.** And the “Mean (dG1)” value (cultured lymphocytes [2]; ADM, n=7)?
**A.** 58.2765%

**Q.** What about the “Mean (dG1)” value (cultured lymphocytes [2]; CONTROL, n=14) of the same molecule?
**A.** 92.3135%

**Q.** What about the “Mean (dG1)” value (cultured lymphocytes [2]; DNOS, n=3) of the same molecule?
**A.** 65.9933%

**Q.** What about the “Mean (dG1)” value (cultured lymphocytes [2]; POSSAD, n=3) of the same molecule?
**A.** 71.6584%

**Q.** And the “Mean (dG1)” value (cultured lymphocytes [2]; PREAD, n=13)?
**A.** 31.3039%

**Q.** And the “Mean dG1 by ApoE4” value (cultured lymphocytes [2]; subjects with 0 ApoE4 alleles, n=28)?
**A.** 61.1186%

**Q.** What about the “Mean dG1 by ApoE4” value (cultured lymphocytes [2]; subjects with 1 ApoE4 allele, n=19) of the same molecule?
**A.** 63.0025%

**Q.** What about the “Mean dG1 by ApoE4” value (cultured lymphocytes [2]; subjects with 2 ApoE4 alleles, n=2) of the same molecule?
**A.** 49.6519%

**Q.** Which “Cell numbers after treatment (treated versus control cultures)” value (cultured lymphocytes [1]; 120 μM H2O2, 24 h, AD, preAD and possAD patients versus control subjects) does the source give for `OO` [H2O2] here?
**A.** significantly higher cell numbers than control subjects
